Active and inactive are the calls of the source. The rule behind the calls is not given here. Bridge positions count the residues as written; N and C are the ends. Square brackets hold non-standard residues; d marks the D form. Peptide text beside a SMILES is read from it. pGlu = O=C1CC[C@@H](C(=O)O)N1
Experiments:
Bos taurus = species on record: Bos taurus; experiment: Inhibition of bovine pancreas trypsin at 0.01 to 8 uM using N-alpha-benzoyl-L-arginine-pnitroanilide substrate preincubated for 15 mins followed by substrate addition and measured after 30 mins; format: tissue-based; conditions: dose microM 0.01-8, time 45.0 min
[1] = Inhibition of bovine pancreas trypsin using N-alpha-benzoyl-L-arginine-pnitroanilide substrate preincubated for 15 mins followed by substrate addition and measured after 30 mins; format: tissue-based, Bos taurus

Row | SMILES | inhibition (Bos taurus) | IC50 [1] [nM]
1 | CC[C@H](C)[C@H](NC(=O)[C@H](CCC(=O)O)NC(=O)[C@@H](NC(=O)[C@H](CCC(=O)O)NC(=O)[C@H](CCCCN)NC(=O)[C@@H]1CCC(=O)N1)[C@@H](C)O)C(=O)N[C@H]1CSSC[C@@H](C(=O)N[C@@H](CCC(=O)O)C(=O)N[C@@H](CCC(=O)O)C(=O)N[C@@H](CCCNC(=N)N)C(=O)N[C@@H](CC(C)C)C(=O)N[C@@H](CCCNC(=N)N)C(=O)N[C@@H](CC(=O)O)C(=O)O)NC(=O)[C@H](CCC(=O)O)NC(=O)[C@H](CCC(N)=O)NC(=O)[C@H](CCC(N)=O)NC(=O)[C@@H]2CSSC[C@H](NC(=O)[C@H](Cc3c[nH]c4ccccc34)NC(=O)[C@H](CCC(N)=O)NC(=O)[C@H](CCCNC(=N)N)NC1=O)C(=O)N[C@@H](CCC(N)=O)C(=O)N[C@@H](C(C)C)C(=O)N[C@@H](CCSC)C(=O)N[C@@H](CCCCN)C(=O)N1CCC[C@H]1C(=O)N[C@@H](CCC(N)=O)C(=O)NCC(=O)NCC(=O)N[C@@H](CCC(=O)O)C(=O)N[C@@H](CCC(=O)O)C(=O)N[C@@H](CCC(N)=O)C(=O)N[C@@H](CCCNC(=N)N)C(=O)N[C@@H](CCCNC(=N)N)C(=O)N2 ([pGlu]KETEICRQWCQVMKPQGGEEQRRCQQECEERLRD-OH; disulfide 7-29, 11-25) | inactive | 
2 | CSCC[C@@H]1NC(=O)[C@H](C(C)C)NC(=O)[C@H](CCCCN)NC(=O)[C@@H](NC(=O)[C@H](CCC(N)=O)NC(=O)[C@H](CCC(=O)O)NC(=O)[C@@H]2CCCN2C(=O)[C@H](CC(=O)O)NC(=O)[C@@H](NC(=O)[C@@H](N)CC(N)=O)[C@@H](C)O)CSSC[C@@H](C(=O)N[C@@H](CCC(=O)O)C(=O)N[C@@H](CCCCN)C(=O)N[C@@H](CCC(=O)O)C(=O)N[C@@H](Cc2c[nH]cn2)C(=O)N[C@@H](CC(=O)O)C(=O)O)NC(=O)[C@H](CCC(N)=O)NC(=O)[C@H](CC(=O)O)NC(=O)[C@H](CC(C)C)NC(=O)[C@@H]2CSSC[C@H](NC1=O)C(=O)N[C@@H](Cc1ccc(O)cc1)C(=O)N[C@@H](C)C(=O)N[C@@H](CCC(N)=O)C(=O)N[C@@H](CCCNC(=N)N)C(=O)N[C@@H](Cc1c[nH]cn1)C(=O)N[C@@H](CO)C(=O)N[C@@H](CO)C(=O)N1CCC[C@H]1C(=O)N[C@@H](CCC(=O)O)C(=O)N[C@@H](CC(C)C)C(=O)N[C@@H](CC(C)C)C(=O)N[C@@H](CCCNC(=N)N)C(=O)N[C@@H](CCCNC(=N)N)C(=O)N2 (H-NTDPEQCKVMCYAQRHSSPELLRRCLDQCEKEHD-OH; disulfide 7-29, 11-25) |  | 400
3 | CC[C@H](C)[C@H](NC(=O)[C@H](CCC(N)=O)NC(=O)[C@H](CCCNC(=N)N)NC(=O)[C@H](CCCCN)NC(=O)[C@@H]1CCCN1)C(=O)N[C@@H](CCC(=O)O)C(=O)N[C@@H](CCCNC(=N)N)C(=O)N[C@H]1CSSC[C@@H](C(=O)N[C@@H](CCC(=O)O)C(=O)N[C@@H](CCC(=O)O)C(=O)N[C@@H](CCC(N)=O)C(=O)N[C@@H](CCC(=O)O)C(=O)N[C@@H](CCC(=O)O)C(=O)N[C@@H](CCCCN)C(=O)N[C@@H](CCCNC(=N)N)C(=O)NCC(=O)N[C@@H](CCC(N)=O)C(=O)NCC(=O)N[C@@H](CC(=O)O)C(=O)O)NC(=O)[C@H](CCC(N)=O)NC(=O)[C@H](CCCNC(=N)N)NC(=O)[C@H](C(C)C)NC(=O)[C@@H]2CSSC[C@H](NC(=O)[C@H](CCC(=O)O)NC(=O)[C@H](CCC(N)=O)NC(=O)[C@H](CCCCN)NC1=O)C(=O)N[C@@H](CCCNC(=N)N)C(=O)N[C@@H](CCC(=O)O)C(=O)N[C@@H](CO)C(=O)N[C@@H](CCCNC(=N)N)C(=O)N[C@@H](CCC(N)=O)C(=O)NCC(=O)N[C@@H](CCC(=O)O)C(=O)N[C@@H](CCC(N)=O)C(=O)N[C@@H](CCC(N)=O)C(=O)N[C@@H](CCC(=O)O)C(=O)N[C@@H](CCCNC(=N)N)C(=O)N[C@@H](CCC(N)=O)C(=O)N2 (H-PKRQIERCKQECRESRQGEQQERQCVRQCEEQEEKRGQGD-OH; disulfide 8-29, 12-25) | inactive | 
